test system: HSV-1; assay: HSV-1 replication in infected Vero 76 cells, DNA hybridization capture assay; type: cell-based, herpes simplex virus 1; conditions: Human alphaherpesvirus 1; HSV-1 in Vero 76 cells, MOI=0.001, 40-48 hours at 37° C.; read-out: IC50
Protocol: a) Tissue Culture and HSV Infection.
Vero 76 cells were maintained in MEM with Earle's salts, L-glutamine, 8% FBS (Hyclone, A-1111-L) and 100 units/mL Penicillin-100 μg/mL Streptomycin. For assay conditions, FBS was reduced to 2%. Cells are seeded into 96-well tissue culture plates at a density of 5×10^4 cells/well after being incubated for 45 min at 37° C. in the presence of HSV-1 or HSV-2 (MOI=0.001). Test compounds are added to the wells and the plates are incubated at 37° C. for 40-48 hours. Cell lysates are prepared as follows: media was removed and replaced with 150 μL/well 0.2 N NaOH with 1% Igepal CA 630 or NP-40. Plates were incubated up to 14 days at room temperature in a humidified chamber to prevent evaporation.
(b) Preparation of Detection DNA.
For the detection probe, a gel-purified, digoxigenin-labeled, […] PCR fragment of the HSV UL-15 sequence was utilized. PCR conditions included 0.5 μM primers, 180 μM dTTP, 20 μM dUTP-digoxigenin (Boehringer Mannheim 1558706), 200 μM each of dATP, dCTP, and dGTP, 1×PCR Buffer II (Perkin Elmer), 2.5 mM MgCl2, 0.025 units/μL of AmpliTaq Gold polymerase (Perkin Elmer), and 5 ng of gel-purified HSV DNA per 100 μL Extension conditions were 10 min at 95° C., followed by 30 cycles of 95° C. for 1 min, 55° C. for 30 sec, and 72° C. for 2 min. The amplification was completed with a 10-min incubation at 72° C. Primers were selected to amplify a 728 bp probe spanning a section of the HSV1 UL15 open reading frame (nucleotides 249-977). Single-stranded transcripts were purified with Promega M13 Wizard kits. The final product was mixed 1:1 with a mixture of 6 M GuSCN, 100 mM EDTA and 200 μg/mL herring sperm DNA and stored at 4° C.
(c) Preparation of Capture Plates.
The capture DNA plasmid (HSV UL13 region in pUC) was linearized by cutting with Xba I, denatured for 15 min at 95° C. and diluted immediately into Reacti-Bind DNA Coating Solution (Pierce, 17250, diluted 1:1 with TE buffer, pH 8) at 1 ng/μL. 75 μL/well were added to Corning (#3922 or 9690) white 96-well plates and incubated at room temperature for at least 4 hrs before washing twice with 300 μL/well 0.2×SSC/0.05% Tween-20 (SSC/T buffer). The plates were then incubated overnight at room temperature with 150 μL/well 0.2 N NaOH, 1% IGEPAL and 10 μg/mL herring sperm DNA.
Twenty-seven (27) μL of cell lysate was combined with 45 μL of hybridization solution (final concentration: 3M GuSCN, 50 mM EDTA, 100 μg/ml salmon sperm DNA, 5×Denhardt's solution, 0.25×APE, and 5 ng of the digoxigenin-labeled detection probe). APE is 1.5 M NH4-acetate, 0.15 M NH4H2 phosphate, and 5 mM EDTA adjusted to pH 6.0. Mineral oil (50 μL) was added to prevent evaporation. The hybridization plates were incubated at 95° C. for 10 minutes to denature the DNA, then incubated at 42° C. overnight. The wells were washed 6× with 300 μL/well SSC/T buffer then incubated with 75 μL/well anti-digoxigenin-HRP-conjugated antibody (Boehringer Mannheim 1207733, 1:5000 in TE) for 30 min at room temperature. The wells were washed 6× with 300 μL/well with PBS/0.05% Tween-20 before 75 μL/well SuperSignal LBA substrate (Pierce) was added. The plates were incubated at room temperature for 30 minutes and chemiluminescence was measured in a Wallac Victor reader.
The following results were obtained for HSV-1.

| IC50 | Structure (SMILES) |
| --- | --- |
| 1.6 µM | CCCCNc1cc(-c2c(-c3ccc(F)cc3)nn3ccccc23)ccn1 [Example 2, N-Butyl-4-[2-(4-fluorophenyl)pyrazolo[1,5-a]pyridin-3-yl]-2-pyridinamine] |
| 1.5 µM | OCCCNc1cc(-c2c(-c3ccc(F)cc3)nn3ccccc23)ccn1 [Example 3, 3-(4-[2-(4-Fluorophenyl)pyrazolo[1,5-a]pyridin-3-yl]-2-pyridinylamino)-1-propanol] |
| 20 µM | NCCCNc1cc(-c2c(-c3ccc(F)cc3)nn3ccccc23)ccn1 [Example 4, N^1-4-[2-(4-Fluorophenyl)pyrazolo[1,5-a]pyridin-3-yl]-2-pyridinyl-1,3-propanediamine] |
| 2.4 µM | OCCNc1cc(-c2c(-c3ccc(F)cc3)nn3ccccc23)ccn1 [Example 9, 2-(4-[2-(4-Fluorophenyl)pyrazolo[1,5-a]pyridin-3-yl]-2-pyridinylamino)-1-ethanol] |
| 1.2 µM | CC(C)Nc1cc(-c2c(-c3ccc(F)cc3)nn3cc(C(F)(F)F)ccc23)ccn1 [Example 13, 4-[2-(4-Fluorophenyl)-6-trifluoromethylpyrazolo[1,5-a]pyridin-3-yl]-N-isopropyl-2-pyridinamine] |
| 2 µM | OCCCNc1cc(-c2c(-c3ccc(F)cc3)nn3cc(C(F)(F)F)ccc23)ccn1 [Example 14, 3-(4-[2-(4-Fluorophenyl)-6-trifluoromethylpyrazolo[1,5-a]-pyridin-3-yl]-2-pyridinylamino)-1-propanol] |
| 4 µM | NCCCNc1cc(-c2c(-c3ccc(F)cc3)nn3cc(Br)ccc23)ccn1 [Example 15, N-(3-Aminopropyl)-4-[6-bromo-2-(4-fluorophenyl)-pyrazolo[1,5-a]pyridin-3-yl]-2-pyridinamine] |
| > 40 µM | Nc1nccc(-c2c(-c3ccc(F)cc3)nn3cc(C(F)(F)F)ccc23)n1 [Example 19, 4-[2-(4-Fluorophenyl)-6-trifluoromethylpyrazolo[1,5-a]pyridin-3-yl]-2-pyrimidinamine] |
| 1 µM | OCCCNc1nccc(-c2c(-c3ccc(F)cc3)nn3cc(C(F)(F)F)ccc23)n1 [Example 23, 3-(4-[2-(4-Fluorophenyl)-6-trifluoromethylpyrazolo[1,5-a]pyridin-3-yl]-2-pyrimidinylamino)-1-propanol] |

The remaining lines, values behind:

| Structure (SMILES) | IC50 |
| --- | --- |
| Fc1ccc(-c2nn3ccccc3c2-c2ccnc(NCCc3cnc[nH]3)c2)cc1 [Example 1, 4-[2-(4-Fluorophenyl)pyrazolo[1,5-a]pyridin-3-yl]-N-[2-(1H-imidazol-5-yl)ethyl]-2-pyridinamine] | 0.7 µM |
| CCCCCCNc1cc(-c2c(-c3ccc(F)cc3)nn3ccccc23)ccn1 [Example 5, 4-[2-(4-Fluorophenyl)pyrazolo[1,5-a]pyridin-3-yl]-N-hexyl-2-pyridinamine] | 5 µM |
| COc1ccc(CNc2cc(-c3c(-c4ccc(F)cc4)nn4ccccc34)ccn2)cc1 [Example 6, 4-[2-(4-Fluorophenyl)pyrazolo[1,5-a]pyridin-3-yl]-N-(4-methoxybenzyl)-2-pyridinamine] | 4.2 µM |
| Fc1ccc(-c2nn3ccccc3c2-c2ccnc(NCc3cccnc3)c2)cc1 [Example 7, 4-[2-(4-Fluorophenyl)pyrazolo[1,5-a]pyridin-3-yl]-N-(3-pyridinylmethyl)-2-pyridinamine] | 6.2 µM |
| CCCNc1cc(-c2c(-c3ccc(F)cc3)nn3ccccc23)ccn1 [Example 8, 4-[2-(4-Fluorophenyl)pyrazolo[1,5-a]pyridin-3-yl]-N-propyl-2-pyridinamine] | 2.8 µM |
| CN(C)c1cc(-c2c(-c3ccc(F)cc3)nn3ccccc23)ccn1 [Example 11, 4-[2-(4-Fluorophenyl)pyrazolo[1,5-a]pyridin-3-yl]-N,N-dimethyl-2-pyridinamine] | 4.4 µM |
| Fc1ccc(-c2nn3ccccc3c2-c2cc(F)nc(NCc3ccccc3)c2)cc1 [Example 12, N-Benzyl-6-fluoro-4-[2-(4-fluorophenyl)pyrazolo[1,5-a]pyridin-3-yl]-2-pyridinamine] | 3.9 µM |
| CCCCNc1nccc(-c2c(-c3ccc(F)cc3)nn3ccccc23)n1 [Example 16, N-Butyl-4-[2-(4-fluorophenyl)pyrazolo[1,5-a]pyridin-3-yl]-2-pyrimidin-amine] | > 20 µM |
| CC(C)Nc1nccc(-c2c(-c3ccc(F)cc3)nn3ccccc23)n1 [Example 17, 4-[2-(4-Fluorophenyl)pyrazolo[1,5-a]pyridin-3-yl]-N-(2-propyl)-2-pyrimidinamine] | 1.5 µM |
| Nc1nccc(-c2c(-c3ccc(F)cc3)nn3ccccc23)n1 [Example 18, 4-[2-(4-Fluorophenyl)pyrazolo[1,5-a]pyridin-3-yl]-2-pyrimidinamine] | 5.4 µM |
| Fc1ccc(-c2nn3cc(C(F)(F)F)ccc3c2-c2ccnc(NCc3ccccc3)n2)cc1 [Example 20, N-Benzyl-4-[2-(4-fluorophenyl)-6-trifluoromethylpyrazolo[1,5-a]pyridin-3-yl]-2-pyrimidinamine] | 16 µM |
| Fc1ccc(-c2nn3cc(C(F)(F)F)ccc3c2-c2ccnc(NC3CC3)n2)cc1 [Example 21, N-Cyclopropyl-4-[2-(4-fluorophenyl)-6-trifluoromethylpyrazolo[1,5-a]pyridin-3-yl]-2-pyrimidinamine] | 0.8 µM |
| Fc1ccc(-c2nn3cc(C(F)(F)F)ccc3c2-c2ccnc(NCC(F)(F)F)n2)cc1 [Example 22, 4-[2-(4-Fluorophenyl)-6-trifluoromethylpyrazolo[1,5-a]pyridin-3-yl]-N-(2,2,2-trifluoroethyl)-2-pyrimidinamine] | 4.3 µM |
| N#Cc1ccc2c(-c3ccnc(NC4CC4)n3)c(-c3ccc(F)cc3)nn2c1 [Example 24, N-Cyclopropyl-4-[6-cyano-2-(4-fluorophenyl)pyrazolo[1,5-a]pyridin-3-yl]-2-pyrimidinamine] | 0.2 µM |
| NC(=O)c1ccc2c(-c3ccnc(NCCCO)n3)c(-c3ccc(F)cc3)nn2c1 [Example 25, 2-(4-Fluorophenyl)-3-(4-(2-(3-hydroxypropyl)amino)pyrimidinyl)-6-pyrazolo-[1,5-a]pyridinylcarboxamide] | 5.5 µM |
| Fc1ccc(-c2nn3ccccc3c2-c2ccnc(NCCc3cnc[nH]3)n2)cc1 [Example 26, 4-[2-(4-Fluorophenyl)pyrazolo[1,5-a]pyridin-3-yl]-N-[2-(1H-imidazol-5-yl)ethyl]-2-pyrimidinamine] | 0.15 µM |
| Fc1ccc(-c2nn3ccccc3c2-c2ccnc(NCc3cccnc3)n2)cc1 [Example 27, 4-[2-(4-Fluorophenyl)pyrazolo[1,5-a]pyridin-3-yl]-N-(3-pyridinylmethyl)-2-pyrimidinamine] | 0.5 µM |
| Fc1ccc(-c2nn3ccccc3c2-c2ccnc(NCc3ccccn3)n2)cc1 [Example 28, 4-[2-(4-Fluorophenyl)pyrazolo[1,5-a]pyridin-3-yl]-N-(2-pyridinylmethyl)-2-pyrimidinamine] | 0.73 µM |
| Fc1ccc(-c2nn3ccccc3c2-c2ccnc(NCc3ccncc3)n2)cc1 [Example 29, 4-[2-(4-Fluorophenyl)pyrazolo[1,5-a]pyridin-3-yl]-N-(4-pyridinylmethyl)-2-pyrimidinamine] | 10 µM |
| CCCCCNc1cc(-c2c(-c3ccc(F)cc3)nn3ccccc23)ccn1 [Example 30, 4-[2-(4-Fluorophenyl)pyrazolo[1,5-a]pyridin-3-yl]-N-pentyl-2-pyridinamine] | 4 µM |
